System: SMN protein
Assay: cellular SMN ELISA (SMN protein elevation)
Type: cell-based
Conditions: myoblast cell line from SMNdelta7 mouse model, 24 hours treatment; for SMN activity Fold: fold activation over DMSO control
Method: A cellular SMN ELISA was used to measure the effects of low molecular weight compounds on SMN protein elevation. Cells from a myoblast cell line derived from the SMNdelta7 mouse model (kind gift from Steve Burden, NYU) were seeded into a 384-well plate at a density of 3000 cells/well and treated with compounds for 24 hours. ELISA capture plates were prepared by coating 384-well plates (Immulon 4HBX) with 0.5 ug/mL of anti-SMN mAb (BD Science, Catalog number 610647) at 4° C. overnight. The plates were washed 5 times with 110 uL of PBS-Tween (0.05% Tween-20, PBST), blocked with 100 uL of 1% BSA in PBST for 2 hours and washed (5 times) with 100 uL of PBST. After 24 hours of compound treatment cells were lysed in a modified RIPA-buffer, on ice for 1 hour. 20 uL of lysate and 20 uL of 1% BSA were then added to the ELISA capture plates and incubated at 4° C. overnight. Plates were washed (5 times) with PBST and then incubated with 1:100 dilution of primary rabbit anti-SMN polyclonal antibody (Santa cruz, Catalog number SC-15320) at room temperature for 1 hour and subsequently washed (5 times) with 110 uL of PBST. This was followed by addition of 1:100 Goat anti-Rabbit IgG-HRP linked (Cell Signaling, Catalog number 7074) secondary antibody for 1 hour. Plates were then washed with PBST and incubated with 40 uL TMB substrate (Cell Signaling, Catalog number 7004L) at room temperature for 1-10 minutes with shaking. The reaction was stopped by addition of 40 uL of stop solution (Cell signaling, Catalog number 7002L) and absorption was measured at 450 nm. Data was reported as fold activation over DMSO control, and EC50.
ELISA assay condition 1: compound concentration range 20 nM-10 uM; ELISA assay condition 2: compound concentration 100 pM-10 uM.

[1] = ELISA condition 2: compound concentration 100 pM-10 uM
[2] = ELISA condition 1: compound concentration range 20 nM-10 uM

| Structure (SMILES) | EC50 [1] [nM] | SMN activity Fold [1] [Fold] | EC50 [2] [nM] | SMN activity Fold [2] [Fold] |
| --- | --- | --- | --- | --- |
| OCCN1CCN(c2ccc(-c3ccc(-n4cccn4)cc3O)nn2)CC1 [Example 18-7, 2-{6-[4-(2-hydroxy-ethyl)-piperazin-1-yl]-pyridazin-3-yl}-5-pyrazol-1-yl-phenol] | 2660 | 2.67 | – | – |
| Oc1cc(-n2cccn2)ccc1-c1ccc(N2CC3CNC(C3)C2)nn1 (stereo not drawn) [Example 18-8, 2-[6-(3,6-diaza-bicyclo[3.2.1]oct-3-yl)-pyridazin-3-yl]-5-pyrazol-1-yl-phenol] | 983 | 2.32 | – | – |
| Oc1cc(-n2cccn2)ccc1-c1ccc(N2CCC3(CC2)CNC3)nn1 [Example 18-9, 2-[6-(2,7-diaza-spiro[3.5]non-7-yl)-pyridazin-3-yl]-5-pyrazol-1-yl-phenol] | – | – | 1180 | 1.93 |
| OCC1CN(c2ccc(-c3ccc(-n4cccn4)cc3O)nn2)CCN1 (stereo not drawn) [Example 18-10, 2-[6-(3-hydroxy-methyl-piperazin-1-yl)-pyridazin-3-yl]-5-pyrazol-1-yl-phenol] | 386 | 2.55 | – | – |
| Oc1cc(-n2cccn2)ccc1-c1ccc(N2CCC3(CCCN3)C2)nn1 (stereo not drawn) [Example 18-11, 2-[6-(1,7-diaza-spiro[4.4]non-7-yl)-pyridazin-3-yl]-5-pyrazol-1-yl-phenol] | 320 | 2.53 | – | – |
| CC1(N)CCN(c2ccc(-c3ccc(-n4cccn4)cc3O)nn2)CC1 [Example 18-12, 2-[6-(4-amino-4-methyl-piperidin-1-yl)-pyridazin-3-yl]-5-pyrazol-1-yl-phenol] | 792 | 2.62 | – | – |
| CN(C)C1CCCN(c2ccc(-c3ccc(-n4cccn4)cc3O)nn2)C1 (stereo not drawn) [Example 18-13, 2-[6-(3-dimethyl-amino-piperidin-1-yl)-pyridazin-3-yl]-5-pyrazol-1-yl-phenol] | 1240 | 2.28 | – | – |
| CN1C(C)(C)CC(Nc2ccc(-c3ccc(-n4cccn4)cc3O)nn2)CC1(C)C [Example 18-14, 2-[6-(1,2,2,6,6-pentamethyl-piperidin-4-ylamino)-pyridazin-3-yl]-5-pyrazol-1-yl-phenol] | – | – | 17 | 2.62 |
| CC1(C)CN(c2ccc(-c3ccc(-n4cccn4)cc3O)nn2)CCN1 [Example 18-15, 2-[6-(3,3-dimethyl-piperazin-1-yl)-pyridazin-3-yl]-5-pyrazol-1-yl-phenol] | 714 | 2.30 | – | – |
| OCCN1CCC2(CCN(c3ccc(-c4ccc(-n5cccn5)cc4O)nn3)C2)C1 (stereo not drawn) [Example 18-16, 2-(6-(7-(2-hydroxyethyl)-2,7-diazaspiro[4.4]-nonan-2-yl)pyridazin-3-yl)-5-(1H-pyrazol-1-yl)phenol] | 227 | 3.25 | – | – |
| Oc1cc(-n2cccn2)ccc1-c1ccc(N2C[C@H]3CNC[C@H]3C2)nn1 [Example 18-17, 2-(6-((3aR,6aS)-hexahydropyrrolo[3,4-c]pyrrol-2(1H)-yl)pyridazin-3-yl)-5-(1H-pyrazol-1-yl)phenol] | 158 | 2.85 | – | – |
| Oc1ccc2cc(-c3ccc(N4CCNCC4)nn3)c(O)cc2c1 [Example 18-18, 3-(6-(piperazin-1-yl)pyridazin-3-yl)naphthalene-2,7-diol] | 56 | 2.57 | – | – |
| Oc1cc(-n2cccn2)ccc1-c1ccc(C2=CCNCC2)nn1 [Example 19-1, 5-pyrazol-1-yl-2-[6-(1,2,3,6-tetrahydro-pyridin-4-yl)-pyridazin-3-yl]-phenol] | 477 | 2.77 | – | – |
| Oc1cc(-n2cccn2)ccc1-c1ccc(C2CCNCC2)nn1 [Example 19-2, 2-(6-piperidin-4-yl-pyridazin-3-yl)-5-pyrazol-1-yl-phenol] | 402 | 2.73 | – | – |
| Oc1cc2ccccc2cc1-c1ccc(C2=CCNCC2)nn1 [Example 19-3, 3-(6-(1,2,3,6-tetra-hydropyridin-4-yl)pyridazin-3-yl)naphthalen-2-ol] | 155 | 2.19 | – | – |

From patent US10195196B2, “1,4-disubstituted pyridazine analogs there of and methods for treating SMN-deficiency-related conditions” (NOVARTIS AG, priority 2012, dated 2019)
